According to BindingDB's records for patent US20240025922 (Merck Patent, 2024):

Target: Mitogen-activated protein kinase kinase kinase kinase 1 (Homo sapiens, UniProt Q92918)
Experiment: HPK1 Kinase Assay (Biochemical Assay)
Method: A recombinant fusion protein consisting of full-length human HPK1 (MAP4K1) with an N-terminal Glutatione S-transferase (GST) tag was produced in insect cells Sf21 using the baculovirus expression system. GST-HPK1 protein was purified from cell lysates by glutathione Sepharose affinity chromatography. The assay is run in three continuous steps: 1) the HPK1 enzymatic kinase reaction, 2) an ATP depletion, and 3) the ADP detection, the steps 2 and 3 are performed with ADP-Glo Kinase Assay kit from Promega (V9101). […] After 120 minutes, the reaction was stopped by adding 5 μL of ADP-Glo reagent (Promega, V9101) and incubating for 40 min. in the dark at 23 C. To determine the level of ADP, 10 μl ADP-Glo Detection solution was added and incubated for 1 hour at 23 C. in the dark.

Mitogen-activated protein kinase kinase kinase kinase 1, sequence (Q92918 whole entry): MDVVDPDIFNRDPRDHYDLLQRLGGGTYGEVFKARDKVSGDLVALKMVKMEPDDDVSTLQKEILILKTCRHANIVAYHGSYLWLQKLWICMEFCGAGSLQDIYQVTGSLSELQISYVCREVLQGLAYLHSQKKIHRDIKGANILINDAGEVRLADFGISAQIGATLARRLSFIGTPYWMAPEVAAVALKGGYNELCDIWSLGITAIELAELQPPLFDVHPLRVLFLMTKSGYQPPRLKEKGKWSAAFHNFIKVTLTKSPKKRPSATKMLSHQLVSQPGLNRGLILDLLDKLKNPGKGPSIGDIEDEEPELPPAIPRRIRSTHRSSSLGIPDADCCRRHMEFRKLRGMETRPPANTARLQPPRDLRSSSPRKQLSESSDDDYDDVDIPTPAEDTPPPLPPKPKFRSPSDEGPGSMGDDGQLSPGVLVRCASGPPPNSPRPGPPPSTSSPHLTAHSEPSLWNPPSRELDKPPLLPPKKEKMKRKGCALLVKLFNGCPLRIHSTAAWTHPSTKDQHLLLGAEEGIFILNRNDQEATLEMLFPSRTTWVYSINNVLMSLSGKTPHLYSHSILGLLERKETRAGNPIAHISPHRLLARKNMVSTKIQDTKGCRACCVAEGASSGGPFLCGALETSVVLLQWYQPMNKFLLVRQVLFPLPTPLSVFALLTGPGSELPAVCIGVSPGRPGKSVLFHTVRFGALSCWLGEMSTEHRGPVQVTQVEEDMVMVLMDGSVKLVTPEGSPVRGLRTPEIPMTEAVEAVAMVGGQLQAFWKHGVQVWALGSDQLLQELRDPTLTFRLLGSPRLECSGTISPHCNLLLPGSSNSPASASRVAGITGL

| IC50 | SMILES |
| --- | --- |
| > 1000 nM | Cc1c(N2CCc3cnc(Nc4cc5n(n4)CC(=O)N(C(C)C)CC5)nc3C2)cnc2c1NCCO2 [US20240025922, Example 89] |
| < 100 nM | COc1cccc(F)c1N1CCc2cnc(Nc3cnc4c(c3)CN(C)CC4)nc2C1 [US20240025922, Example 120] |
| > 1000 nM | Cc1cc(Nc2cc3c(cn2)CCN(c2cnc4c(c2Cl)NCCO4)C3)nn1CC(=O)N(C)C [US20240025922, Example 131] |
